Measured values as given in PubChem BioAssay (NCI).
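How tested: cells in 96-well plates exposed to compound for 48 hours at five concentrations. TGI is the concentration that stops growth completely.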

Assays:
Experiment in all cases: DTP human tumour cell line panel, 48 h
MOLT-4 leukemia = tested on: MOLT-4 leukemia
SNB-75 CNS = tested on: SNB-75 CNS
SN12C renal = tested on: SN12C renal
UACC-62 melanoma = tested on: UACC-62 melanoma
SK-MEL-2 melanoma = tested on: SK-MEL-2 melanoma
K-562 leukemia = tested on: K-562 leukemia
HL-60(TB) leukemia = tested on: HL-60(TB) leukemia
M14 melanoma = tested on: M14 melanoma
HT29 colon = tested on: HT29 colon
BT-549 breast = tested on: BT-549 breast
T-47D breast = tested on: T-47D breast
PC-3 prostate = tested on: PC-3 prostate
HCT-116 colon = tested on: HCT-116 colon
MCF7 breast = tested on: MCF7 breast
SF-295 CNS = tested on: SF-295 CNS
SNB-19 CNS = tested on: SNB-19 CNS
LOX IMVI melanoma = tested on: LOX IMVI melanoma
HS 578T breast = tested on: HS 578T breast
KM12 colon = tested on: KM12 colon
UO-31 renal = tested on: UO-31 renal
SF-539 CNS = tested on: SF-539 CNS
ACHN renal = tested on: ACHN renal
IGROV1 ovarian = tested on: IGROV1 ovarian
HOP-92 NSCLC = tested on: HOP-92 NSCLC
CAKI-1 renal = tested on: CAKI-1 renal
RPMI-8226 leukemia = tested on: RPMI-8226 leukemia
NCI-H226 lung = tested on: NCI-H226 lung
CCRF-CEM leukemia = tested on: CCRF-CEM leukemia
OVCAR-8 ovarian = tested on: OVCAR-8 ovarian
MDA-MB-435 = tested on: MDA-MB-435
HCT-15 colon = tested on: HCT-15 colon
U251 CNS = tested on: U251 CNS
DU-145 prostate = tested on: DU-145 prostate
TK-10 renal = tested on: TK-10 renal
NCI/ADR-RES ovarian = tested on: NCI/ADR-RES ovarian
786-0 renal = tested on: 786-0 renal
EKVX NSCLC = tested on: EKVX NSCLC
HCC-2998 colon = tested on: HCC-2998 colon
COLO 205 colon = tested on: COLO 205 colon
OVCAR-5 ovarian = tested on: OVCAR-5 ovarian
UACC-257 melanoma = tested on: UACC-257 melanoma
OVCAR-4 ovarian = tested on: OVCAR-4 ovarian
SK-MEL-28 melanoma = tested on: SK-MEL-28 melanoma
MDA-N = tested on: MDA-N
SF-268 CNS = tested on: SF-268 CNS
NCI-H460 lung = tested on: NCI-H460 lung
SK-OV-3 ovarian = tested on: SK-OV-3 ovarian
RXF 393 renal = tested on: RXF 393 renal
A498 renal = tested on: A498 renal
HOP-62 NSCLC = tested on: HOP-62 NSCLC
SW-620 colon = tested on: SW-620 colon
SK-MEL-5 melanoma = tested on: SK-MEL-5 melanoma
NCI-H23 lung = tested on: NCI-H23 lung
OVCAR-3 ovarian = tested on: OVCAR-3 ovarian
MDA-MB-231 breast = tested on: MDA-MB-231 breast
A549 NSCLC = tested on: A549 NSCLC
MALME-3M melanoma = tested on: MALME-3M melanoma
NCI-H522 lung = tested on: NCI-H522 lung

Oc1ccc2c(c1)OCC1c3ccccc3OC21 (stereo unspecified)
TGI (MOLT-4 leukemia): 65.2 µM | TGI (SNB-75 CNS): > 100 µM | TGI (SN12C renal): > 100 µM | TGI (UACC-62 melanoma): > 100 µM | TGI (SK-MEL-2 melanoma): > 100 µM | TGI (K-562 leukemia): > 100 µM | TGI (HL-60(TB) leukemia): 83.4 µM | TGI (M14 melanoma): > 100 µM | TGI (HT29 colon): > 100 µM | TGI (BT-549 breast): > 100 µM | TGI (T-47D breast): > 100 µM | TGI (PC-3 prostate): > 100 µM | TGI (HCT-116 colon): > 100 µM | TGI (MCF7 breast): > 100 µM | TGI (SF-295 CNS): > 100 µM | TGI (SNB-19 CNS): > 100 µM | TGI (LOX IMVI melanoma): > 100 µM | TGI (HS 578T breast): > 100 µM | TGI (KM12 colon): > 100 µM | TGI (UO-31 renal): > 100 µM | TGI (SF-539 CNS): > 100 µM | TGI (ACHN renal): > 100 µM | TGI (IGROV1 ovarian): > 100 µM | TGI (HOP-92 NSCLC): > 100 µM | TGI (CAKI-1 renal): > 100 µM | TGI (RPMI-8226 leukemia): > 100 µM | TGI (NCI-H226 lung): > 100 µM | TGI (CCRF-CEM leukemia): > 100 µM | TGI (OVCAR-8 ovarian): > 100 µM | TGI (MDA-MB-435): > 100 µM | TGI (HCT-15 colon): > 100 µM | TGI (U251 CNS): > 100 µM | TGI (DU-145 prostate): > 100 µM | TGI (TK-10 renal): > 100 µM | TGI (NCI/ADR-RES ovarian): > 100 µM | TGI (786-0 renal): > 100 µM | TGI (EKVX NSCLC): 86.7 µM | TGI (HCC-2998 colon): > 100 µM | TGI (COLO 205 colon): > 100 µM | TGI (OVCAR-5 ovarian): > 100 µM | TGI (UACC-257 melanoma): > 100 µM | TGI (OVCAR-4 ovarian): > 100 µM | TGI (SK-MEL-28 melanoma): > 100 µM | TGI (MDA-N): > 100 µM | TGI (SF-268 CNS): > 100 µM | TGI (NCI-H460 lung): > 100 µM | TGI (SK-OV-3 ovarian): > 100 µM | TGI (RXF 393 renal): > 100 µM | TGI (A498 renal): > 100 µM | TGI (HOP-62 NSCLC): > 100 µM | TGI (SW-620 colon): > 100 µM | TGI (SK-MEL-5 melanoma): > 100 µM | TGI (NCI-H23 lung): > 100 µM | TGI (OVCAR-3 ovarian): > 100 µM | TGI (MDA-MB-231 breast): > 100 µM

CC(C)(C)c1ccc2c(c1)C(=O)c1ccccc1C2=O
TGI (MOLT-4 leukemia): 65.8 µM | TGI (SNB-75 CNS): 87 µM | TGI (SN12C renal): > 100 µM | TGI (UACC-62 melanoma): > 100 µM | TGI (A549 NSCLC): > 100 µM | TGI (MALME-3M melanoma): > 100 µM | TGI (K-562 leukemia): > 100 µM | TGI (HL-60(TB) leukemia): > 100 µM | TGI (M14 melanoma): > 100 µM | TGI (HT29 colon): 68.8 µM | TGI (BT-549 breast): > 100 µM | TGI (T-47D breast): > 100 µM | TGI (PC-3 prostate): > 100 µM | TGI (HCT-116 colon): > 100 µM | TGI (MCF7 breast): 66.3 µM | TGI (SF-295 CNS): > 100 µM | TGI (SNB-19 CNS): > 100 µM | TGI (LOX IMVI melanoma): > 100 µM | TGI (HS 578T breast): > 100 µM | TGI (KM12 colon): > 100 µM | TGI (UO-31 renal): > 100 µM | TGI (SF-539 CNS): > 100 µM | TGI (ACHN renal): > 100 µM | TGI (IGROV1 ovarian): > 100 µM | TGI (HOP-92 NSCLC): 85 µM | TGI (CAKI-1 renal): > 100 µM | TGI (RPMI-8226 leukemia): > 100 µM | TGI (NCI-H226 lung): 92.6 µM | TGI (CCRF-CEM leukemia): > 100 µM | TGI (OVCAR-8 ovarian): > 100 µM | TGI (MDA-MB-435): > 100 µM | TGI (HCT-15 colon): > 100 µM | TGI (U251 CNS): > 100 µM | TGI (DU-145 prostate): > 100 µM | TGI (TK-10 renal): > 100 µM | TGI (NCI/ADR-RES ovarian): > 100 µM | TGI (786-0 renal): > 100 µM | TGI (EKVX NSCLC): 75.9 µM | TGI (COLO 205 colon): 60.3 µM | TGI (OVCAR-5 ovarian): > 100 µM | TGI (UACC-257 melanoma): > 100 µM | TGI (OVCAR-4 ovarian): > 100 µM | TGI (SK-MEL-28 melanoma): > 100 µM | TGI (MDA-N): > 100 µM | TGI (SF-268 CNS): > 100 µM | TGI (NCI-H460 lung): > 100 µM | TGI (SK-OV-3 ovarian): > 100 µM | TGI (RXF 393 renal): 80 µM | TGI (A498 renal): > 100 µM | TGI (HOP-62 NSCLC): > 100 µM | TGI (SW-620 colon): > 100 µM | TGI (SK-MEL-5 melanoma): 40.2 µM | TGI (NCI-H23 lung): > 100 µM | TGI (OVCAR-3 ovarian): > 100 µM | TGI (MDA-MB-231 breast): > 100 µM

Nc1ncnc2nc(N3CCN(CCO)CC3)[nH]c12
TGI (MOLT-4 leukemia): > 100 µM | TGI (SN12C renal): > 100 µM | TGI (UACC-62 melanoma): > 100 µM | TGI (A549 NSCLC): > 100 µM | TGI (MALME-3M melanoma): > 100 µM | TGI (SK-MEL-2 melanoma): > 100 µM | TGI (K-562 leukemia): > 100 µM | TGI (HL-60(TB) leukemia): > 100 µM | TGI (M14 melanoma): > 100 µM | TGI (HT29 colon): > 100 µM | TGI (BT-549 breast): > 100 µM | TGI (T-47D breast): > 100 µM | TGI (PC-3 prostate): > 100 µM | TGI (HCT-116 colon): > 100 µM | TGI (MCF7 breast): > 100 µM | TGI (SF-295 CNS): > 100 µM | TGI (SNB-19 CNS): > 100 µM | TGI (LOX IMVI melanoma): > 100 µM | TGI (HS 578T breast): > 100 µM | TGI (KM12 colon): > 100 µM | TGI (UO-31 renal): > 100 µM | TGI (SF-539 CNS): > 100 µM | TGI (ACHN renal): > 100 µM | TGI (IGROV1 ovarian): > 100 µM | TGI (CAKI-1 renal): > 100 µM | TGI (RPMI-8226 leukemia): > 100 µM | TGI (NCI-H522 lung): > 100 µM | TGI (NCI-H226 lung): > 100 µM | TGI (CCRF-CEM leukemia): > 100 µM | TGI (OVCAR-8 ovarian): > 100 µM | TGI (MDA-MB-435): > 100 µM | TGI (HCT-15 colon): > 100 µM | TGI (U251 CNS): > 100 µM | TGI (DU-145 prostate): > 100 µM | TGI (TK-10 renal): > 100 µM | TGI (NCI/ADR-RES ovarian): > 100 µM | TGI (786-0 renal): > 100 µM | TGI (EKVX NSCLC): > 100 µM | TGI (HCC-2998 colon): > 100 µM | TGI (COLO 205 colon): > 100 µM | TGI (OVCAR-5 ovarian): > 100 µM | TGI (UACC-257 melanoma): > 100 µM | TGI (OVCAR-4 ovarian): > 100 µM | TGI (SK-MEL-28 melanoma): > 100 µM | TGI (MDA-N): > 100 µM | TGI (SF-268 CNS): > 100 µM | TGI (NCI-H460 lung): > 100 µM | TGI (SK-OV-3 ovarian): > 100 µM | TGI (RXF 393 renal): > 100 µM | TGI (A498 renal): > 100 µM | TGI (HOP-62 NSCLC): > 100 µM | TGI (SW-620 colon): > 100 µM | TGI (SK-MEL-5 melanoma): > 100 µM | TGI (NCI-H23 lung): > 100 µM | TGI (OVCAR-3 ovarian): > 100 µM | TGI (MDA-MB-231 breast): > 100 µM
